In brackets after ≈: the same amount, converted by molar mass.
How the values were obtained:
physchem = conditions: USP phosphate buffer (pH 6.8), pH 6.8, aqueous buffer, kinetic from dmso stock
[1] = Solubility test with polymers (Example 24); conditions: USP phosphate buffer (pH 6.8), pH 6.8, aqueous buffer, kinetic from dmso stock, after 5 min

## CNC(=O)c1ccc(N2C(=S)N(c3ccc(C#N)c(C(F)(F)F)c3)C(=O)C2(C)C)cc1F [enzalutamide, 4-{3-[4-cyano-3-(trifluoromethyl)phenyl]-5,5-dimethyl-4-oxo-2-sulfanylideneimidazolidin-1-yl}-2-fluoro-N-methylbenzamide]
physchem
  solubility at 5 min: 0.0311 mg/mL (≈ 67 µM)
[1]; with copolyvidone
  solubility at 5 min: 0.0474 mg/mL (≈ 102 µM)
[1]; with hydroxypropylmethylcellulose 2910 (TC-5E)
  solubility at 5 min: 0.0427 mg/mL (≈ 91.9 µM)
[1]; with hydroxypropylmethylcellulose 2910 (TC-5R)
  solubility at 5 min: 0.0392 mg/mL (≈ 84.4 µM)
[1]; with polyvinylpyrrolidone
  solubility at 5 min: 0.0401 mg/mL (≈ 86.3 µM)
[1]; without polymer
  solubility at 5 min: 0.029 mg/mL (≈ 62.4 µM)

— patent publication US20230122911A1, “FORMULATIONS OF ENZALUTAMIDE” (Astellas Pharma Inc., priority 2012, published 2023)
